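The compound was tested at five concentrations on cells cultured in 96-well plates, with a 48-hour exposure period. Abbreviation: GI50, concentration required for 50% inhibition of growth. TGI marks complete inhibition of growth.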
Tests used:
Test in all cases: NCI anticancer screen, dose series, 48 h
[1] = test system: SK-MEL-2 melanoma
[2] = test system: SF-295 CNS
[3] = test system: NCI-H460 lung
[4] = test system: SK-MEL-5 melanoma
[5] = test system: ACHN renal
[6] = test system: M14 melanoma
[7] = test system: TK-10 renal
[8] = test system: NCI-H522 lung
[9] = test system: DU-145 prostate
[10] = test system: MOLT-4 leukemia
[11] = test system: NCI/ADR-RES ovarian
[12] = test system: NCI-H23 lung
[13] = test system: PC-3 prostate
[14] = test system: CAKI-1 renal
[15] = test system: HCT-15 colon
[16] = test system: HL-60(TB) leukemia
[17] = test system: OVCAR-8 ovarian
[18] = test system: KM12 colon
[19] = test system: SF-539 CNS
[20] = test system: NCI-H226 lung
[21] = test system: U251 CNS
[22] = test system: SK-OV-3 ovarian
[23] = test system: EKVX NSCLC
[24] = test system: HCT-116 colon
[25] = test system: UACC-257 melanoma
[26] = test system: UACC-62 melanoma
[27] = test system: BT-549 breast
[28] = test system: HCC-2998 colon
[29] = test system: SNB-19 CNS
[30] = test system: A498 renal
[31] = test system: SNB-75 CNS
[32] = test system: A549 NSCLC
[33] = test system: MDA-MB-435
[34] = test system: RXF 393 renal
[35] = test system: RPMI-8226 leukemia
[36] = test system: OVCAR-4 ovarian
[37] = test system: COLO 205 colon
[38] = test system: MCF7 breast
[39] = test system: HS 578T breast
[40] = test system: T-47D breast
[41] = test system: MDA-MB-231 breast
[42] = test system: HT29 colon
[43] = test system: 786-0 renal
[44] = test system: SW-620 colon
[45] = test system: SN12C renal
[46] = test system: SK-MEL-28 melanoma
[47] = test system: SF-268 CNS
[48] = test system: K-562 leukemia
[49] = test system: CCRF-CEM leukemia
[50] = test system: HOP-92 NSCLC
[51] = test system: MALME-3M melanoma
[52] = test system: HOP-62 NSCLC
[53] = test system: UO-31 renal
[54] = test system: OVCAR-5 ovarian
[55] = test system: SR leukemia
[56] = test system: LOX IMVI melanoma
[57] = test system: IGROV1 ovarian

Nn1c(=O)n(-c2cccc(C(F)(F)F)c2)c(=O)c2cc(-c3ccc(F)cc3F)ccc21 gave a GI50 [1] of 0.449 µM, a TGI [1] of 2.07 µM and a GI50 [2] of 1.76 µM. It also gave a TGI [2] of 3.76 µM, a GI50 [3] of 0.776 µM and a TGI [3] of 8.03 µM. The GI50 [4] was 0.338 µM, the TGI [4] was 1.24 µM and the GI50 [5] was 2.4 µM. For the same molecule, the TGI [5] was 10.3 µM, the GI50 [6] was 1.54 µM and the TGI [6] was 4.33 µM. For the same molecule, the GI50 [7] was 4.07 µM, the TGI [7] was 8.74 µM and the GI50 [8] was 0.39 µM. For the same molecule, the TGI [8] was 2.55 µM, the GI50 [9] was 3.06 µM and the TGI [9] was 17.7 µM. The GI50 [10] was 2.05 µM, the TGI [10] was 6.12 µM and the GI50 [11] was 1.84 µM. For the same molecule, the TGI [11] was 9.17 µM, the GI50 [12] was 1.08 µM and the TGI [12] was 4.2 µM. The GI50 [13] was 0.653 µM, the TGI [13] was 4.14 µM and the GI50 [14] was 1.5 µM. It also gave a TGI [14] of 5.14 µM, a GI50 [15] of 0.649 µM and a TGI [15] of 2.69 µM. The GI50 [16] was 1.75 µM, the TGI [16] was 8.76 µM and the GI50 [17] was 1.22 µM. It also gave a TGI [17] of 6.52 µM, a GI50 [18] of 2.44 µM and a TGI [18] of 6.6 µM. It also gave a GI50 [19] of 1.73 µM, a TGI [19] of 8.23 µM and a GI50 [20] of 1.53 µM. For the same molecule, the TGI [20] was 4.84 µM, the GI50 [21] was 1.51 µM and the TGI [21] was 9.92 µM. It also gave a GI50 [22] of 1.29 µM, a TGI [22] of 3.39 µM and a GI50 [23] of 2.48 µM. It also gave a TGI [23] of 8.79 µM, a GI50 [24] of 0.841 µM and a TGI [24] of 2.29 µM. The GI50 [25] was 1.05 µM, the TGI [25] was 3.97 µM and the GI50 [26] was 0.296 µM. It also gave a TGI [26] of 1.14 µM, a GI50 [27] of 0.667 µM and a TGI [27] of 2.14 µM. It also gave a GI50 [28] of 2.77 µM, a TGI [28] of 9.96 µM and a GI50 [29] of 1.07 µM. For the same molecule, the TGI [29] was 13.3 µM, the GI50 [30] was 0.327 µM and the TGI [30] was 1.3 µM. For the same molecule, the GI50 [31] was 1.67 µM, the TGI [31] was 6.37 µM and the GI50 [32] was 2.71 µM. For the same molecule, the TGI [32] was 12.5 µM, the GI50 [33] was 1.66 µM and the TGI [33] was 6.45 µM. For the same molecule, the GI50 [34] was 1.12 µM, the TGI [34] was 3.11 µM and the GI50 [35] was 0.319 µM. The TGI [35] was 1.52 µM, the GI50 [36] was 2.55 µM and the TGI [36] was over 100 µM. It also gave a GI50 [37] of 1.94 µM, a TGI [37] of 3.67 µM and a GI50 [38] of 1.61 µM. For the same molecule, the TGI [38] was 7.08 µM, the GI50 [39] was 1.19 µM and the TGI [39] was 5.43 µM. It also gave a GI50 [40] of 1.69 µM, a TGI [40] of 7.02 µM and a GI50 [41] of 1.9 µM. It also gave a TGI [41] of 6.13 µM, a GI50 [42] of 3.49 µM and a TGI [42] of 13.9 µM. The GI50 [43] was 2.14 µM, the TGI [43] was 5.26 µM and the GI50 [44] was 1.62 µM. The TGI [44] was 4.41 µM, the GI50 [45] was 0.991 µM and the TGI [45] was 5.36 µM. The GI50 [46] was 1.45 µM, the TGI [46] was 6.65 µM and the GI50 [47] was 1.91 µM. The TGI [47] was 10.9 µM, the GI50 [48] was 0.949 µM and the TGI [48] was 14.8 µM. It also gave a GI50 [49] of 1.14 µM, a TGI [49] of 6.85 µM and a GI50 [50] of 0.137 µM. For the same molecule, the TGI [50] was 0.523 µM, the GI50 [51] was 1.54 µM and the TGI [51] was 5.3 µM. For the same molecule, the GI50 [52] was 1.9 µM, the TGI [52] was 4.6 µM and the GI50 [53] was 2.27 µM. For the same molecule, the TGI [53] was 8.8 µM, the GI50 [54] was 3.51 µM and the TGI [54] was 19 µM. The GI50 [55] was 1.21 µM, the TGI [55] was 5.94 µM and the GI50 [56] was 1.49 µM. For the same molecule, the TGI [56] was 3.13 µM, the GI50 [57] was 1.83 µM and the TGI [57] was 27.7 µM.

— PubChem BioAssay (NCI)
